# Data: publication PMC10626578, “Designed switch from covalent to non-covalent inhibitors of carboxylesterase Notum activity” (European Journal of Medicinal Chemistry, 2023)
# Where “and” joins values, the source holds several entries; their conditions need not be identical. Identical values can stand only once. Like-named read-outs stand apart in the source and are kept apart here.
# Assays:
# [1] = target: T1, Notum (core, 81–451C330S) (Homo sapiens, UniProt Q6P988, C330S); assay: Notum-OPTS biochemical assay, Notum (81–451C330S); details: for fold increase in Notum inhibition over 3a: vs 3a, more potent
# T1 construct: high-throughput biochemical assay with Notum (81–451C330S) and OPTS as a synthetic fluorescent substrate; made in house
# T1 sequence (Q6P988 81-451 C330S): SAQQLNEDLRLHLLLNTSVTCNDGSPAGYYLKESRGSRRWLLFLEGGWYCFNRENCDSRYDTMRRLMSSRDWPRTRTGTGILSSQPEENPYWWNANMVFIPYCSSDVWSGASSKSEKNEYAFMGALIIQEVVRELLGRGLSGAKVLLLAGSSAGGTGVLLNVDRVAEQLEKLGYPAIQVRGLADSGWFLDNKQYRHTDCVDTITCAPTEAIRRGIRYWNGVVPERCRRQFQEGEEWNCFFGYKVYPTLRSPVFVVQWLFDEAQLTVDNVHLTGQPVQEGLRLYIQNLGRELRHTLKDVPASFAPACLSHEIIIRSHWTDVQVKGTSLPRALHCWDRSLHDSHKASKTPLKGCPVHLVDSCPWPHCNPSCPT
# Description: Notum inhibitors 3–5 (Table 1, Table 2, Table 3, Table 4) were either purchased or prepared using established synthetic methods from readily available starting materials (Scheme 1). Where necessary, the synthesis of many of these amines (e.g. 6) have been reported previously and full details of their preparation have been included in the Experimental Section. Notum inhibition activity was determined using the standard Notum-OPTS biochemical assay using IC50 values. These values were used to compare relative activities with covalent inhibitors under carefully regulated assay conditions. […] Selected inhibitors were screened for inhibition of Notum activity in a TCF/LEF Reporter (Luciferase) cell line with exogenous WNT3a and Notum, and soaked into Notum crystals to determine their binding modes and evidence of MoA.
# (§1) Methods have been described in detail.
# [2] = Stability in human liver microsomes; type: in vitro ADME; details: for half-life: human, read-out: HLM Stability t1/2
# Description: (§2) Selected compounds were routinely screened for aqueous solubility in PBS (pH 7.4), transit performance in MDCK-MDR1 cell lines for permeability, and metabolic stability in MLM and HLM as a measure of clearance. The main metabolites and routes of metabolism of 4y were determined in MLM. Assay protocols and additional data are presented in the Supplementary Material (Tables S1–S7). ADME studies reported in this work were performed by WuXi AppTec (Shanghai, China).
# (§3) Representative assay protocols have been described in detail. ^1,2
# [3] = target: T2, Notum (Homo sapiens, UniProt Q6P988); assay: TCF/LEF Reporter (Luciferase) cell line with exogenous WNT3a and Notum; type: cell-based; details: for restoration of Wnt signalling in the presence of Notum: concentration-response curves up to 10 μM
# T2 construct: host or cells: TCF/LEF Reporter (Luciferase) cell line; Notum added exogenously
# T2 sequence (Q6P988 20-496): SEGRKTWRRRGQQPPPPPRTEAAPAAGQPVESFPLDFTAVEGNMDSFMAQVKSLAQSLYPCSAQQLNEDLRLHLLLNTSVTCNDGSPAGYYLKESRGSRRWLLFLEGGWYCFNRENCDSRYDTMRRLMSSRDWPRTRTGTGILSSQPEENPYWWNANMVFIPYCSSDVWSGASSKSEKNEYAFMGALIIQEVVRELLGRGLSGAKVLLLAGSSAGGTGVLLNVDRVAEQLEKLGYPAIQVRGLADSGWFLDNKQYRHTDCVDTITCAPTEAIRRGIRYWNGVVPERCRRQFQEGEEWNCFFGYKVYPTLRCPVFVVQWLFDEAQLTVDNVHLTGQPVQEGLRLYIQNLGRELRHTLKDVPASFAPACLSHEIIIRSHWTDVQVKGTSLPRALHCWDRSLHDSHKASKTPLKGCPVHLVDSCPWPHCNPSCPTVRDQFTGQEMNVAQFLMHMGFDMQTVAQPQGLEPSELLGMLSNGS
# Description: Notum inhibitors 3–5 (Table 1, Table 2, Table 3, Table 4) were either purchased or prepared using established synthetic methods from readily available starting materials (Scheme 1). Where necessary, the synthesis of many of these amines (e.g. 6) have been reported previously and full details of their preparation have been included in the Experimental Section. Notum inhibition activity was determined using the standard Notum-OPTS biochemical assay using IC50 values. These values were used to compare relative activities with covalent inhibitors under carefully regulated assay conditions. Confirmed inhibitors were routinely screened in in vitro ADME assays. Selected inhibitors were screened for inhibition of Notum activity in a TCF/LEF Reporter (Luciferase) cell line with exogenous WNT3a and Notum, and soaked into Notum crystals to determine their binding modes and evidence of MoA. […]
# as §1
# [4] = Aqueous solubility in PBS (pH 7.4); type: physicochemical; details: for solubility thermodynamic: PBS, Table S2, pH 7.4, n = 2, * below lower limit of quantification, read-out: Thermodynamic Solubility @ RT; for solubility: Table 3, PBS pH 7.4
# Description: as §2, §3
# [5] = Stability in mouse liver microsomes; type: in vitro ADME; details: for microsomal CLint at 1 h: Table 3, read-out: MLM Clint
# Description: as §2, §3
# [6] = tested on: TCF/LEF Reporter (Luciferase) cell line; assay: TCF/LEF reporter (Luciferase) assay with WNT3A in the absence of Notum; type: cell-based; details: up to 10 μM
# Description: (§4) Early leads 4v, 4w and 4y were then evaluated in additional pharmacology and ADME screens (Table 3). […] Screening 4w and 4y in the biochemical assay using full length Notum and OPTS confirmed potent inhibition of Notum activity.
# Figure S4D. Notum TCF/LEF reporter (Luciferase) data with WNT3A (200 ng/mL) in the absence of Notum. Representative response-concentration curves are for 4w (2 of 6 shown) from a larger data set for compounds 3-5. Examples are from different screening runs.
# [7] = target: T3, Notum (full length) (Homo sapiens, UniProt Q6P988); assay: Notum-OPTS biochemical assay, full length Notum
# T3 construct: Screening 4w and 4y in the biochemical assay using full length Notum and OPTS
# T3 sequence (Q6P988 20-496): T2 sequence (Q6P988 20-496)
# Description: as §4, §1
# [8] = Distribution coefficient LogD7.4, shake flask method; type: physicochemical; details: pH 7.4; Table 3
# Description: Molecular properties (MW, clogP) were calculated with ChemDraw Professional v16.0.1.4(77). Distribution coefficients (LogD7.4) were measured using the shake flask method.
# Representative assay protocols have been described in detail.^1,^2
# [9] = Stability in mouse plasma; type: in vitro ADME
# Text: as §3
# [10] = Permeability using MDR1-MDCKII cell monolayer; type: in vitro ADME; details: dog, MDCK-MDR1, Table S3, mean n=2
# Description: as §2, §3
# [11] = tested on: MDR1-MDCKII cell monolayer; assay: Permeability using MDR1-MDCKII cell monolayer; type: in vitro ADME; details: Table 3; efflux ratio
# Description: as §2, §3
# [12] = tested on: MDR1; assay: Permeability using MDR1-MDCKII cell monolayer; type: in vitro ADME; details: dog
# Description: as §2, §3
# [13] = Metabolite identification of 4y in mouse liver microsomes (LC-UV-MS); type: in vitro ADME; details: 4y at 10 µM incubated with MLM at 37 °C for 60 min; share of total drug-related components
# Description: The test compound 4y at 10 µM was incubated with mouse liver microsomes (MLM) at 37 °C for 60 min. The positive control, 7-ethoxycoumarin (7-EC) at 10 µM, was run concurrently to assess Phase I metabolic activities in liver microsomes. […] After incubation, the samples were analysed by LC-UV-MS. The structures of the metabolites were proposed based on the interpretation of their MS and MS^2 data.
# The relative abundance of 4y and each of the putative metabolites were calculated using peak area (peak area under the UV spectrum at 250-280 nm) of individual metabolite relative to the total area of all detected drug-related components (Table S6).
# [14] = Table 2, mean ± s.d. of n = 4–12, >10 = 20–50% inhibition @ 10 μM, read-out: Notum IC50
# [15] = Notum (core, 81–451C330S), read-out: OPTS, IC50
# [16] = Notum (core, 81–451C330S), restoration of Wnt signalling, read-out: TCF-LEF, EC50
# [17] = mouse, read-out: MLM Stability t1/2
# [18] = Notum (full length), read-out: OPTS, IC50
# [19] = Table 4, mean ± s.d. of n = 4–8, >10 = 20–50% inhibition @ 10 μM, read-out: Notum IC50
HLM Stability Cli [2],half-life [2],SMILES,"IC50 [1, 14]","IC50 [1, 15]","EC50 [3, 16]",restoration of Wnt signalling in the presence of Notum [3],solubility thermodynamic [4],solubility [4],MLM Stability Cli [5],microsomal CLint at 1 h [5],"half-life [5, 17]",assay interference or cell toxicity in the absence of Notum [6],further results
640 µL/min/mg protein,2.2 min,"CC(=O)N1CCc2c(Cl)cccc21 [Compound 4g, 1-(4-Chloroindolin-1-yl)ethan-1-one]",40 ± 24 nM,–,–,–,–,–,–,–,–,–,fold increase in Notum inhibition over 3a [1]: 10 fold
900 µL/min/mg protein,1.5 min,"CC(=O)N1CCc2c1cccc2C(F)(F)F [Compound 4o, 1-(4-(Trifluoromethyl)indolin-1-yl)ethan-1-one]",30 ± 4 nM,–,–,–,–,–,–,–,–,–,–
–,–,"CC(=O)N1CCc2c1ccc(Cl)c2C(F)(F)F [Compound 4v, 1-(5-Chloro-4-(trifluoromethyl)indolin-1-yl)ethan-1-one]",1.3 ± 0.3 nM,1.3 ± 0.3 nM,28 ± 20 nM,restored Wnt signalling,1.55 µg/mL,1.6 µg/mL,650 µL/min/mg protein,650 µL/min/mg,2.1 min,not by assay interference or cell toxicity,–
–,–,"CC(=O)N1CC2(CC2)c2c(Cl)cccc21 [Compound 4y, 1-(4′-Chlorospiro[cyclopropane-1,3′-indolin]-1′-yl)ethan-1-one]",3.5 ± 0.6 nM,3.5 ± 0.6 nM,35 ± 13 nM,restored Wnt signalling,0.186 µg/mL,0.2 µg/mL,895 µL/min/mg protein,900 µL/min/mg,1.5 min,not by assay interference or cell toxicity,"IC50 [7, 18]: 11 ± 1.4 nM; Relative Abundance (UV peak area %Total) [13]: 30% and 30.48%"
–,–,"CC(=O)n1ccc2c(Cl)c(Cl)ccc21 [Compound 5d, 1-(4,5-Dichloro-1H-indol-1-yl)ethan-1-one]",–,–,–,–,< 0.36 µg/mL,–,1320 µL/min/mg protein,–,1.1 min,–,"IC50 [1, 19]: 31 ± 4 nM"
–,–,"O=C1CCC2Cc3ccccc3N12 (stereo not drawn) [Compound 5f, 1,2,9,9a-Tetrahydro-3H-pyrrolo[1,2-a]indol-3-one]",–,–,–,–,577 µg/mL,–,73 µL/min/mg protein,–,19 min,–,"IC50 [1, 19]: 180 ± 20 nM; fold increase in Notum inhibition over 3a [1]: 2 fold; half-life at 1 h [5, 17]: 18 min"

SMILES,HLM Stability Cli [2],half-life [2],"IC50 [1, 14]","IC50 [1, 15]","EC50 [3, 16]",restoration of Wnt signalling in the presence of Notum [3],solubility thermodynamic [4],solubility [4],MLM Stability Cli [5],microsomal CLint at 1 h [5],"half-life [5, 17]",assay interference or cell toxicity in the absence of Notum [6],further results
"CC(=O)N1CCc2c1ccc(Cl)c2Cl [Compound 4w, 1-(4,5-Dichloroindolin-1-yl)ethan-1-one]",138 µL/min/mg protein,10 min,2.5 ± 0.6 nM,2.5 ± 0.6 nM,22 ± 14 nM,restored Wnt signalling,< 0.36 µg/mL,0.4 µg/mL,1150 µL/min/mg protein,1200 µL/min/mg,1.2 min,not by assay interference or cell toxicity,"IC50 ([1]; Figure S4A, Notum (81-451 C330S) OPTS, 4 of 11 curves shown, read-out: IC50, single concentration-response curve): 2.8 nM and 3.7 nM and 2.3 nM and 3.1 nM; LE ([1]; ligand efficiency from Notum OPTS IC50): 0.85; LLE ([1]; lipophilic ligand efficiency from Notum OPTS IC50 and clogP): 5.9; IC50 ([7]; Figure S4B, Notum (full length) OPTS, 3 of 3 curves shown, read-out: IC50, single concentration-response curve): 5.3 nM and 4.1 nM and 5.4 nM; IC50 [7, 18]: 4.9 ± 0.6 nM; EC50 ([3]; Figure S4C, WNT3A (200 ng/mL), 6 of 6 curves shown, read-out: EC50, single concentration-response curve): 5.5 nM and 4.3 nM and 15.2 nM and 39 nM and 29.1 nM and 36.8 nM; logD [8]: 3.1; microsomal CLint at 1 h ([2]; Table 3, read-out: HLM Clint): 140 µL/min/mg; half-life ([9]; Table S5, read-out: Mouse plasma Stability t1/2): > 280 min; half-life ([9]; read-out: mouse plasma stability t½): > 240 min; recovery ([10]; read-out: A to B % Recovery): 75%; recovery ([10]; read-out: B to A % Recovery): 81%; MDCK-MDR1 ER [11]: 0.60; Papp ([12]; MDCK-MDR1, Table 3, apical to basal, read-out: MDCK-MDR1 AB Papp): 35 ×10⁻⁶ cm/s; Papp ([12]; MDCK-MDR1, Table 3, basal to apical, read-out: MDCK-MDR1 BA Papp): 21 ×10⁻⁶ cm/s; efflux ratio ([12]; MDCK-MDR1, Table S3, mean n=2): 0.59; Papp ([12]; MDCK-MDR1, Table S3, mean n=2, read-out: Apical to Basal Papp): 35.5 ×10⁻⁶ cm/s; Papp ([12]; MDCK-MDR1, Table S3, mean n=2, read-out: Basal to Apical Papp): 21.1 ×10⁻⁶ cm/s"
